Test results published in US8993614B2, “Substituted pyrrolidine-2-carboxamides” (Hoffmann-La Roche Inc., priority 2012, dated 2015).

Legend:
[1] = in vivo; conditions: iv, 4.37 mg/kg
[2] = physchem; conditions: aqueous medium

AUC(0-inf) [1]: 21600 ng·h/mL
AUC(0-t) [1]: 20900 ng·h/mL
Cmax [1]: 4390 ng/mL
half-life [1]: 5.07 h
solubility [2]: < 1 µg/mL
SMILES: COc1cc(C(=O)O)ccc1NC(=O)[C@@H]1N[C@@H](CC(C)(C)C)[C@](C#N)(c2ccc(Cl)cc2F)[C@H]1c1cccc(Cl)c1F [Compound B, 4-((2R,3S,4R,5S)-3-(3-chloro-2-fluorophenyl)-4-(4-chloro-2-fluorophenyl)-4-cyano-5-neopentylpyrrolidine-2-carboxamido)-3-methoxybenzoic acid]
